Columns and labels:
potato plants [1] = experiment: Desiccant action on potato leaf, field plots, visual evaluation 15 DAA (Example 3); type: in vivo; conditions: for Desiccation (%): potato leaf, 15 DAA; for effect in combination with the herbicides tested (synergistic / antagonist): potato desiccation, Colby analysis
Source text: The desiccant was applied by spraying.

potato plants [2] = experiment: Desiccant action on potato leaf of carfentrazone-ethyl with polyferulates of different molecular weight (Example 4); conditions: application rate 25 g a.i. ha^−1, 15 DAA
Lemna minor = experiment: Herbicide activity on Lemna minor in vitro, fresh weight reduction (Example 5); type: in vivo; conditions: all chemicals at 10 mg/L; 7-day exposure
Procedure: The experiment was carried out in Lemna minor growing in vitro conditions. Lemna minor (duckweed) was bought in the local market. A stock culture was maintained on modified Hoagland medium in a controlled environment. The pH of the medium was adjusted to 6.0, and the plants were grown under static conditions in a plant growth chamber at 25±2° C., light/dark regime of 16 h/8 h.
For the experiments, fronds free from any visible chlorosis were taken from the stock cultures and exposed to the appropriate treatment. For each treatment, we used six repetitions with three fronds per repetition as the initial frond number. Individual fronds were transferred to a 12 well multiplate containing Hoagland medium (control), Hoagland medium containing polyferulates, herbicides or the combination as shown in Table 8. All chemicals were evaluated at the same concentration (10 mg/L). The multiplate was covered with a transparent cover to prevent evaporation. The herbicide activity was evaluated as fresh weight reduction compared to untreated plants after one week of incubation in the described conditions.

Echinochloa colona = experiment: Herbicide activity on Echinochloa colona, visual evaluation 20 DAT (Example 6); type: in vivo
Source text: Echinochloa colona is a cosmopolitan weed common in crops (mainly rice, maize and vegetables), gardens, roadsides, disturbed sites, waste areas and pastures. It also grows along waterways, on the margins of lakes and ponds, in swamps and wetlands, and in other damp habitats. It has the potential to invade natural areas and completely outcompete native vegetation. This weed pose a significant threat to rice productivity globally and are usually reported as noxious weeds in several economically important crops around the world. E. colona has vigorous growth traits and high seed production since each E. colona plant can produce up to 42,000 seeds. The experiment in Echinochloa colona plants was carried out in independent pots and in four replications. […] The products were applied by spraying. The herbicide activity was visually evaluated 20 days after treatment.

[3] = tested on: Tomato (Solanum lycopersicum) plants; experiment: Herbicide uptake into plant foliage: distribution of pyraflufen-ethyl between leaf fractions (Example 9); type: in vivo; conditions: tomato leaves
Procedure: Tomato (Solanum lycopersicum) plants were sprayed with a diluted solution of pyraflufen-ethyl herbicide or a diluted solution of pyraflufen-ethyl herbicide combined with polyferulates. Samples of treated leaves were taken at 2 h and 24 h after treatment. An extraction procedure following successive steps was used to describe the distribution of pyraflufen-ethyl residues on and in plant leaves. Four fractions of pesticide residues were recovered: (i) the fraction of pesticide susceptible to wash-off by rain that was assumed to correspond to the water-washable fraction, (ii) the fraction of pesticide having adsorbed on the leaf surface that was assumed to correspond to the ethanol-extracted fraction, (iii) the fraction of pesticide having penetrated into the cuticle that was assumed to correspond to the hexane-extracted fraction, and (iv) the fraction of pesticide having penetrated into the foliar tissues that was assumed to correspond to the bound residues fraction.

potato plants [4] = experiment: Greenhouse potato trial: fresh weight reduction and quantum yield of PSII (Example 7); type: in vivo; conditions: for Fresh weight of the plants (% of control): 14 DAA; for Quantum yield of PSII: three days after foliar application
Procedure: The trial was carried out in a greenhouse in potato plants. The desiccant (pyraflufen-ethyl, a Protoporphyrinogen Oxidase (PPO) Inhibitor) was applied by spraying at different percentage of the recommended doses alone or combined with polyferulates. The effect of the herbicide was first evaluated by measurements of the photosynthetic capacity of treated leaves using the QY (quantum yield) three days after foliar application and the final desiccation efficiency was evaluated 14 days after treatment. The herbicide activity (desiccation efficiency) was evaluated as fresh weight reduction respect to untreated plants (control) an expressed in percentage.

potato plants [5] = experiment: Desiccant action on potato leaf in function of polyferulate application timing (Example 8); type: in vivo; conditions: application rate 10.6 g a.i. ha^−1; 15 days after treatment
Source text: Polyferulates were applied the day before the desiccant spraying (D−1), in tank mix combination with the desiccant (D−0) or the day after the desiccant spraying (D+1). […] The desiccant was applied by spraying.

[6] = pyraflufen-ethyl at 25% of recommended dose
[7] = pyraflufen-ethyl at 50% of recommended dose
[8] = pyraflufen-ethyl at 75% of recommended dose
[9] = pyraflufen-ethyl at 100% of recommended dose

CCOC(=O)C(Cl)Cc1cc(-n2nc(C)n(C(F)F)c2=O)c(F)cc1Cl (centres unmarked) [Carfentrazone-ethyl] was tested, and the “Desiccation (%)” value (potato plants [1]; application rate 30) was 73%, the “Desiccation (%)” value (potato plants [1]; application rate 60) was 96% and the “Desiccation (%)” value (potato plants [2]) was 56%.

CCOC1Oc2ccc(OS(C)(=O)=O)cc2C1(C)C (centres unmarked) [Ethofumesate] was tested, and the “Herbicide activity (fresh weight reduction compared to untreated plants)” value (Lemna minor) was 0.

COc1cc(/C=C/C(=O)O)ccc1O [Ferulic acid, (2E)-3-(4-hydroxy-3methoxyphenyl)prop-2-enoic acid] was tested, and the “Desiccation (%)” value (potato plants [1]; application rate 12) was 3% and the “effect in combination with the herbicides tested (synergistic / antagonist)” value (potato plants [1]) was “antagonist”.

In the case of O=C(O)CNCP(=O)(O)O [Glyphosate], the Herbicide activity (Echinochloa colona; application rate 550 g a.i. ha^−1) is reported as 59%.

CCCCCCCCC(=O)O [Pelargonic acid] was tested, and the “Desiccation (%)” value (potato plants [1]; application rate 2720) was 51%, the “Desiccation (%)” value (potato plants [1]; application rate 5440) was 68% and the “Desiccation (%)” value (potato plants [1]; application rate 10880) was 95%.

For COc1cnc(OC)n2nc(NS(=O)(=O)c3c(OCC(F)F)cccc3C(F)(F)F)nc12 [Penoxsulam], the Herbicide activity (Echinochloa colona; application rate 30 g a.i. ha^−1) was 16%.

For COC(=O)Nc1cccc(OC(=O)Nc2cccc(C)c2)c1 [Phenmedipham], the “Herbicide activity (fresh weight reduction compared to untreated plants)” value (Lemna minor) was 3.

With CCCC(=NOCC(C)Oc1ccc(Cl)cc1)C1=C(O)CC(C2CCCSC2)CC1=O (centres unmarked) [Profoxydim] the “Herbicide activity (fresh weight reduction compared to untreated plants)” value (Lemna minor) was 45 and the Herbicide activity (Echinochloa colona; application rate 110 g a.i. ha^−1) was 34%.

For CCOC(=O)COc1cc(-c2nn(C)c(OC(F)F)c2Cl)c(F)cc1Cl [Pyraflufen-ethyl], the “pyraflufen-ethyl in Bound residues fraction” value ([3]; 2 h after treatment) was 0.16 μg/g of fresh weight leaves, the “pyraflufen-ethyl in Ethanol-extracted fraction” value ([3]; 2 h after treatment) was 1.88 μg/g of fresh weight leaves and the “pyraflufen-ethyl in Hexane-extracted fraction” value ([3]; 2 h after treatment) was 0.51 μg/g of fresh weight leaves. For the same compound, the “pyraflufen-ethyl in Water-washable fraction” value ([3]; 2 h after treatment) was 3.34 μg/g of fresh weight leaves, the “pyraflufen-ethyl in Bound residues fraction” value ([3]; 24 h after treatment) was 0.12 μg/g of fresh weight leaves and the “pyraflufen-ethyl in Ethanol-extracted fraction” value ([3]; 24 h after treatment) was 1.59 μg/g of fresh weight leaves. The “pyraflufen-ethyl in Hexane-extracted fraction” value ([3]; 24 h after treatment) was 0.94 μg/g of fresh weight leaves, the “pyraflufen-ethyl in Water-washable fraction” value ([3]; 24 h after treatment) was 3.1 μg/g of fresh weight leaves and the “Fresh weight of the plants (% of control)” value (potato plants [4]; [6]) was 39 % of control. The “Quantum yield of PSII” value (potato plants [4]; [6]) was 0.6, the “Fresh weight of the plants (% of control)” value (potato plants [4]; [7]) was 22 % of control and the “Quantum yield of PSII” value (potato plants [4]; [7]) was 0.461. The “Fresh weight of the plants (% of control)” value (potato plants [4]; [8]) was 14 % of control, the “Quantum yield of PSII” value (potato plants [4]; [8]) was 0.385 and the “Fresh weight of the plants (% of control)” value (potato plants [4]; [9]) was 10 % of control. For the same compound, the “Quantum yield of PSII” value (potato plants [4]; [9]) was 0.335, the “Desiccation (%)” value (potato plants [1]; application rate 5.3) was 60% and the “Desiccation (%)” value (potato plants [1]; application rate 10.6) was 78%. For the same compound, the “Desiccation (%)” value (potato plants [1]; application rate 15.9) was 85%, the “Desiccation (%)” value (potato plants [1]; application rate 21.2) was 90% and the “Desiccation (%)” value (potato plants [5]) was 79%.

For COC(=O)c1cccc(C)c1S(=O)(=O)NC(=O)Nc1nc(OCC(F)(F)F)nc(N(C)C)n1 [Triflusulfuron-methyl], the “Herbicide activity (fresh weight reduction compared to untreated plants)” value (Lemna minor) was 34.

In the case of Diferulic acid, the “Desiccation (%)” value (potato plants [1]; application rate 12) is reported as 2% and the “effect in combination with the herbicides tested (synergistic / antagonist)” value (potato plants [1]) is reported as “antagonist”.

Source: patent US20240423203A1, “Herbicidally Active Combination for Agricultural Applications” (priority 2021, published 2024)
